Laboratory results from patent US12171835B2, “Furan-aspidospermine dimer or pharmaceutically acceptable salt thereof, and preparation method, use and pharmaceutical composition” (Kunming Inst. of Botany, Chinese Acad. of Sciences, priority 2021, dated 2024).

What was measured:
[1] = tested on: bone marrow-derived macrophages (BMMs); test: Activated immune test: ARG1 activity / M2 polarization in IL-4-stimulated BMMs; type: cell-based, mouse; conditions: for inhibition of the expression of arginase induced by IL-4 in macrophages: BMMs pretreated with drug (1 μM), IL-4 stimulation 12 h, absorbance at 540 nm, FIG. 1
Method: Activated immune test: bone marrow-derived macrophages (BMMs), as primary cells isolated from bone marrow and subjected to induced culture that can well reflect functions of the macrophages, are commonly used cells to study the functions of the macrophages. A mouse femur bone marrow was isolated and cultured in a medium containing an mCSF factor for 6-7 d to obtain mature BMMs; stimulation with IL-4 for 12 h can induce polarization of the BMMs to an immunosuppressive M2 type with high expression of ARG1; after the ARG1 protein was extracted, arginine hydrolysis was conducted in vitro, and color development was further conducted by reacting α-isonitrosopropiophenone with a hydrolyzate urea; an absorbance was measured at a wavelength of 540 nm as a marker of an ARG1 activity. A specific process was as follows: cells were pretreated with drugs (1 μM) (including the CPLD, CPLL, TBYA, MDK, HMD, compounds 1-3 and compounds 5-7); IL-4 stimulation was conducted for 12 h, followed by washing with PBS, and cells were lysed with a lysis buffer containing a protease inhibitor, and a total cell protein was obtained; after adding […] to 0.4 mM Mn^2, the total cell protein was heated at 55° C. for 10 min to fully activate an arginase ARG1. 0.5 mM arginine was added for incubation at 37° C. for 1 h to 2 h to fully hydrolyze the arginine. An acid solution containing sulfuric acid and phosphoric acid was added to stop the reaction, a 9% α-isonitrosopropiophenone ethanol solution was added, followed by heating at 95° C. for 15 min to 30 min to develop color.

[2] = tested on: bone marrow-derived macrophages (BMMs); test: as above; type: cell-based, mouse; conditions: FIG. 1C, FIG. 2
[3] = tested on: CD8+ T cells and other immune cells in the tumor; test: FACS analysis / intracellular staining of immune cells in the tumors; type: in vivo, mouse
Description: Validation of improving and enhancing CD8^+ T cell function: through FACS analysis, the test results of compound 1 are shown in FIG. 3. […] In addition, the compound 1 is able to down-regulate a proportion of CD206^+ macrophages (FIG. 4).
(§1) Further immunofluorescence staining experiments also find that the CPLD can increase the proportion of CD8 T cells and promote the expression of Granzyme B (L). Further, mice were continuously injected with anti-CD8 antibodies to delete CD8+ T cells in the mice, to construct a melanoma model, followed by investigation of an anti-tumor activity of the compounds.

CD8 T cells = test: immunofluorescence staining of tumors; type: in vivo, mouse; conditions: FIG. 5L
Description: as §1

melanoma = test: CD8+ T cell-depleted melanoma model (anti-CD8 antibodies); type: in vivo, mice; conditions: FIG. 5M to N
Description: as §1

tumor = test: nude mouse tumor model (CPLD); type: in vivo; conditions: FIG. 5M to N

CC[C@@]12CC(C(=O)OC)=C3Nc4cc5c(cc4[C@@]34CCN(C[C@H]3O[C@H]31)[C@@H]24)[C@@H]1[C@H](O5)[C@@H](O)[C@@]2(CC)CC(C(=O)OC)=C3Nc4c(cc(O)c(OC)c4OC)[C@@]34CCN1[C@@H]24 [CPLL, conophylline]
inhibition of the expression of arginase induced by IL-4 in macrophages [1]: significantly inhibit | inhibition of M2 polarization of the macrophages, concentration dependence [2]: inhibit M2 polarization of the macrophages in a concentration-dependent manner

Ibogabisindole [reference compound]
activity of inhibiting M2 polarization in macrophages ([1]; comparison substances lacking the furan-aspidospermine dimer skeleton): neither the furan-ringed aspidospermine, Corynantheine, nor the furan-ringed aspidospermine, Ibogabisindole, have the activity

CC[C@@]12C=CCN3CC[C@]4(C(=C(C(=O)OC)C1)Nc1cc5c(cc14)[C@H]1[C@@H](O5)[C@H](O)[C@]4(CC)CC(C(=O)OC)=C5Nc6c(cc(O)c(OC)c6OC)[C@@]56CCN1[C@H]46)[C@H]32 [CPLD, conophyllidine]
inhibition of the expression of arginase induced by IL-4 in macrophages [1]: significantly inhibit | effect on CD4 T cells ([3]; FACS analysis): no significant effect | effect on Treg cells (proportion) ([3]; FACS analysis): no effect | proportion of CD8+ T cells in the tumor ([3]; FACS analysis): significantly increase | expression of Granzyme B in CD8+ T cells ([3]; intracellular staining): enhance | expression of IFNγ in CD8+ T cells ([3]; intracellular staining): enhance | expression of TNFα in CD8+ T cells ([3]; intracellular staining): enhance | function of the CD8+ T cells ([3]; intracellular staining): promote | expression of Granzyme B (CD8 T cells): promote | proportion of CD8 T cells (CD8 T cells): increase | anti-tumor effect (melanoma): significantly reduced | anti-tumor effect (tumor): significantly reduced | inhibition of M2 polarization of the macrophages, concentration dependence [2]: inhibit M2 polarization of the macrophages in a concentration-dependent manner

19′-hydroxymelodinineK [HMD]
inhibition of the expression of arginase induced by IL-4 in macrophages [1]: significantly inhibit | inhibition of M2 polarization of the macrophages, concentration dependence [2]: inhibit M2 polarization of the macrophages in a concentration-dependent manner

melodinine K [MDK]
inhibition of the expression of arginase induced by IL-4 in macrophages [1]: significantly inhibit | inhibition of M2 polarization of the macrophages, concentration dependence [2]: inhibit M2 polarization of the macrophages in a concentration-dependent manner

taberyunine A [TBYA]
inhibition of the expression of arginase induced by IL-4 in macrophages [1]: significantly inhibit | inhibition of M2 polarization of the macrophages, concentration dependence [2]: inhibit M2 polarization of the macrophages in a concentration-dependent manner
